Where two headings read alike, the source gives them in different places. Non-standard residues stand in square brackets, D forms with d. Residues, ends and D or L forms follow the SMILES beside them. *: point of attachment. AMC = Cc1cc(=O)oc2cc(N*)ccc12; Tos = Cc1ccc(S(=O)(=O)*)cc1; Cbz = O=C(OCc1ccccc1)*; Boc = CC(C)(C)OC(=O)*
What was measured:
hK2 [1] = target: T1, hK2 (Homo sapiens, UniProt P20151); assay: Kinetic constants of AMC substrate hydrolysis by hK2; format: biochemical; design: key to Kcat: The entry “NR” means that no reaction was detected; conditions: for Kcat: 50 mM Tris pH 7.5, 0.1 M NaCl, 0.2% BSA, 37° C., Lineweaver-Burk, NR = no reaction detected; for Activity (%): hydrolytic activity of hK2 in relation to H-Pro-Phe-Arg-AMC: 100 μM substrate
T1 construct: made in house
Method: The measurements were done with Fluoroscan II (Labsystems, Helsinki, Finland) using a 355 nm excitation filter and a 460 nm emission filter. The fluorescence of 7-amino-4-methylcoumarin (AMC) (Sigma, St. Louis, Mo., USA) was determined to be 700 FIU/nmol and this value was used in the calculations of the rate of product formation. Unless otherwise indicated all final analyses were performed in 200 μl of the buffer 50 mM Tris pH 7.5, 0.1 M NaCl, and 0.2% BSA at 37° C. using 1.6 pmol hK2. BSA was added to the reaction mixture in order to minimize adsorption of the enzyme to the walls of the microtiter wells. The amount of hK2 was quantified by a commercial PSA immunoassay (Prostatus, Wallac, Turku, Finland) with the Mabs H1 17 and H50 which recognize PSA and hK2 equally well (Lovgren et al., Biochem. Biophys. Res. Co., 213, 888-895 (1995)). Under the conditions described, 1.6 pmol of the hK2 preparation cleaved 50 pmol/min of the 100 μM substrate Pro-Phe-Arg-AMC (SEQ ID NO: 55). During the 20 minute measurement time the consumption of the substrates is <7% of their total amount and was not considered to affect the reaction rate. Initial analysis of the substrates were performed with 3.2 pmol hK2 at a substrate concentration of 250 μM. Km value for the substrates cleaved by hK2 at these conditions were determined using at least four substrate concentrations ranging from 0.2×Km to 5×Km. The Km and kcat values were calculated from Lineweaver-Burk plots.
Substrates ending in either arginine or lysine were tested. […] However, no hydrolysis of Arg-Gln-Arg-Arg-AMC (SEQ ID NO: 63) was detected. […] As with the semenogelins, hK2 also here cleaves substrates with Arg at position P1 and preferentially a large residue or another Arg at position P2. None of the substrates with lysine in the C-terminal position were cleaved.
The activity listed in Table 1 is hydrolytic activity of hK2 with 100 μM substrate in relation to the hydrolytic activity of hK2 with 100 μM of the tissue kallikrein substrate H-Pro-Phe-Arg-AMC (SEQ ID NO: 55). The entry “NR” means that no reaction was detected.

[2] = target: sarcoplasmic reticulum (SR) and endoplasmic reticulum (ER) Ca^2+-ATPase (SERCA) pump; conditions: read-out: apparent dissociation constant; cited from earlier work
hK2 [3] = target: T1, hK2; assay: Effect of heparin on hK2 activity (Km and kcat of substrate); format: biochemical; conditions: heparin 10^−4 to 10^−7 M; data not shown
Source text: The increase had no significant effect on the calculation of the constants.

hK2 [4] = target: T1, hK2; assay: Inhibition of hK2 by protease inhibitors (substrate H-Pro-Phe-Arg-AMC); format: biochemical; conditions: for inhibition of hK2 (in words): 8 nM hK2, 90 μM substrate; for Activity (%) of hK2, percentage of inhibitor-free control: 10 minutes of incubation, 8.3 nM hK2, 90 μM substrate
Method: Activity of hK2 (1.6 pmol) was monitored using the substrate H-Pro-Phe-Arg-AMC (SEQ ID NO: 55) (90 μM). Inhibitors, at commonly used concentrations, and hK2 (8.3 nM) were mixed and proteolysis of 90 μM H-Pro-Phe-Arg-AMC (SEQ ID NO: 55) was followed up to 20 minutes, starting directly or 10 minutes after mixing the enzyme with various inhibitors. Inhibition was evaluated by comparison with […] controls.
The proteolytic activity is expressed in percentage of inhibitor-free control after 10 minutes of incubation.
Therefore, PPACK can be used to obtain fast irreversible inhibition of hK2.

hK2 [5] = target: T1, hK2; assay: Kinetic analysis of hK2 inhibition by zinc; format: biochemical; conditions: for Ki: two bound zinc ions model, best fit, substrates Pro-Phe-Arg-AMC and Ala-Arg-Arg-AMC, no BSA
Method: Since BSA contains several binding sites for Zn^2+, it could not be used in the kinetics buffer during zinc inhibition experiments. The binding of hK2 to the microtiter well walls caused a constant decrease in the reaction rate, which was however similar to all zinc concentrations. The velocities were calculated from a five-minute measurement time after mixing of the enzymes with the buffer containing substrate and zinc.
The inhibition of hK2 by zinc was first tested against competitive, uncompetitive, mixed, non-competitive, and partial non-competitive inhibitor models using commonly used formulas described for the respective inhibition models. […] The Dixon plots ([Zn^2+]/v) for the inhibition were not linear. However, at low zinc ion concentrations the inhibition pattern looked competitive. The inhibition mechanism is clearly more complex than the ones described by the formulas used. Further analysis of the inhibition mechanism was done by deriving the rate equations for various more complex mechanisms and analyzing the data by least-squares best-fit systems. The possible mechanism required two bound zinc ions, and is presented by Scheme 1.
[formula] where the concentration of free enzyme e is the total enzyme concentration divided by the sum of a) {(the zinc concentration divided by Ki1) times (the zinc concentration divided by Ki2)} and b) {(the zinc concentration divided by Ki1) plus 1} times {(the substrate concentration divided by Ks) plus 1}.
The equation fitted the experimental data quite satisfactorily. The constant values were Ki1=4.6+/−3.9 μM, Ki2=3.2+/−0.7 μM, and k=k′.

T1 sequence (P20151 25-261): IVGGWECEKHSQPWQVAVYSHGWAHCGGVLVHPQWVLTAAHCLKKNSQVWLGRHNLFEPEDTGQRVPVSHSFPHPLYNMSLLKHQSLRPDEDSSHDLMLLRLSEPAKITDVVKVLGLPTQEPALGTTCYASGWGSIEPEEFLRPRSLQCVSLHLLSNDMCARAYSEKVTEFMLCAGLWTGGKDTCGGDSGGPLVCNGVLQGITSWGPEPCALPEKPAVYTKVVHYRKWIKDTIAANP

## Cc1ccc(S(=O)(=O)NCC(=O)N2CCC[C@H]2C(=O)N[C@@H](CCCNC(=N)N)C(=O)Nc2ccc3c(C)cc(=O)oc3c2)cc1 [Gly Pro Arg-AMC, Tos-Gly-Pro-Arg-AMC] (Tos-Gly-Pro-Arg-{AMC})
hK2 [1]
  Kcat: NR

## Cc1cc(=O)oc2cc(NC(=O)[C@H](CCCNC(=N)N)NC(=O)[C@@H](NC(=O)[C@@H](NC(=O)OCc3ccccc3)C(C)C)C(C)C)ccc12 [Val Val Arg-AMC, Z-Val-Val-Arg-AMC] (Cbz-Val-Val-Arg-{AMC})
hK2 [1]
  Kcat: NR

## Cc1cc(=O)oc2cc(NC(=O)[C@H](CCCNC(=N)N)NC(=O)[C@H](CCCNC(=N)N)NC(=O)[C@H](C)NC(=O)OCc3ccccc3)ccc12 [Ala Arg Arg-AMC, Z-Ala-Arg-Arg-AMC] (Cbz-Ala-Arg-Arg-{AMC})
hK2 [1]
  hydrolysis by hK2 (in words): cleaved quite effectively
  Activity (%): hydrolytic activity of hK2 in relation to H-Pro-Phe-Arg-AMC: 33%

## Cc1cc(=O)oc2cc(NC(=O)[C@H](CCCNC(=N)N)NC(=O)[C@H](CO)NC(=O)[C@H](Cc3ccccc3)NC(=O)OC(C)(C)C)ccc12 [Phe Ser Arg-AMC, Boc-Phe-Ser-Arg-AMC] (Boc-Phe-Ser-Arg-{AMC})
hK2 [1]
  Kcat: NR

## Cc1ccc(S(=O)(=O)NCC(=O)N2CCC[C@H]2C(=O)N[C@@H](CCCCN)C(=O)Nc2ccc3c(C)cc(=O)oc3c2)cc1 [Gly Pro Lys-AMC, Tos-Gly-Pro-Lys-AMC] (Tos-Gly-Pro-Lys-{AMC})
hK2 [1]
  Kcat: NR

## Cc1cc(=O)oc2cc(NC(=O)[C@H](CCCNC(=N)N)NC(=O)[C@H](CC(C)C)NC(=O)[C@H](CC(C)C)NC(=O)OCc3ccccc3)ccc12 [Leu Leu Arg-AMC, Z-Leu-Leu-Arg-AMC]
hK2 [1]
  hydrolysis by hK2 (in words): with lower efficiency
  Activity (%): hydrolytic activity of hK2 in relation to H-Pro-Phe-Arg-AMC: 7%

## C/C=C(/C)C(=O)O[C@H]1C(C)=C2[C@H]([C@@H]1OC(=O)CCCCCCC)[C@@](C)(OC(C)=O)C[C@H](OC(=O)CCC)[C@@]1(O)[C@H]2OC(=O)[C@@]1(C)O [TG, Thapsigargin]
[2]
  Kd: ≤ 2.2 pM

## heparin
hK2 [3]
  effect on Km of the substrate: slightly increased

## [Cl-].[Cl-].[Zn+2] [ZnCl2]
hK2 [4]
  inhibition of hK2 (in words): effectively inhibits hK2
hK2 [4]; inhibitor 100 μM
  Activity (%) of hK2, percentage of inhibitor-free control: 10%
hK2 [4]; inhibitor 200 μM
  Activity (%) of hK2, percentage of inhibitor-free control: 1.2%
hK2 [5]
  effect on Km and Vmax of hK2: increased the Km and decreased the Vmax
  reversal of hK2 inhibition by addition of EDTA: totally reversed
hK2 [5]; read-out: Ki1
  Ki: 4.6 µM
hK2 [5]; read-out: Ki2
  Ki: 3.2 µM

## Cc1cc(=O)oc2cc(NC(=O)[C@H](CCCNC(=N)N)NC(=O)[C@H](CCCNC(=N)N)NC(=O)[C@H](CCC(N)=O)NC(=O)[C@@H](N)CCCNC(=N)N)ccc12 [Arg Gln Arg Arg-AMC, H-Arg-Gln-Arg-Arg-AMC] (H-RQRR-{AMC})
hK2 [1]
  hydrolysis by hK2 (in words): no hydrolysis
  Kcat: NR

## Cc1cc(=O)oc2cc(NC(=O)[C@H](CCCNC(=N)N)NC(=O)[C@@H]3CCCN3C(=O)[C@@H](NC(=O)OC(C)(C)C)C(C)C)ccc12 [Val Pro Arg-AMC, boc-Val-Pro-Arg-AMC] (Boc-Val-Pro-Arg-{AMC})
hK2 [1]
  hydrolysis by hK2 (in words): with lower efficiency
  Activity (%): hydrolytic activity of hK2 in relation to H-Pro-Phe-Arg-AMC: 6%

## Cc1cc(=O)oc2cc(NC(=O)[C@H](CCCNC(=N)N)NC(=O)[C@H](Cc3ccccc3)NC(=O)[C@@H]3CCCN3)ccc12 [Pro Phe Arg-AMC, H-Pro-Phe-Arg-AMC] (H-Pro-Phe-Arg-{AMC})
hK2 [1]
  hydrolysis by hK2 (in words): best substrate
  Activity (%): hydrolytic activity of hK2 in relation to H-Pro-Phe-Arg-AMC: 100%
hK2 [1]; 1.6 pmol hK2, 100 μM substrate, pH 7.5, 37° C.
  rate of substrate cleavage by hK2 preparation: 50 pmol/min

## Cc1cc(=O)oc2cc(NC(=O)[C@H](CCCNC(=N)N)NC(=O)CNC(=O)[C@H](CCC(N)=O)NC(=O)OC(C)(C)C)ccc12 [Gln Gly Arg-AMC, Boc-Gln-Gly-Arg-AMC] (Boc-Gln-Gly-Arg-{AMC})
hK2 [1]
  Kcat: NR

## Aprotinin
hK2 [4]
  inhibition of hK2 (in words): not to be good hK2 inhibitor
hK2 [4]; inhibitor 5 μM
  Activity (%) of hK2, percentage of inhibitor-free control: 10%
hK2 [4]; inhibitor 30 μM
  Activity (%) of hK2, percentage of inhibitor-free control: 33%

## Cc1cc(=O)oc2cc(NC(=O)[C@H](CCCCN)NC(=O)[C@H](CC(C)C)NC(=O)[C@H](N)C(C)C)ccc12 [Val Leu Lys-AMC, H-D-Val-Leu-Lys-AMC] (H-[dV]-Leu-Lys-{AMC})
hK2 [1]
  Kcat: NR
